Read-outs that look alike come from different tables or passages of the source.
Key:
bovine TM cells = assay: TM cell volume by electronic cell sizing (Coulter Counter); type: cell-based
Procedure: By the second method, TM cells were trypsinized briefly in Ca-free medium, then rinsed with medium containing trypsin inhibitor and suspended in Hepes MEM. Mean cell volumes were then analyzed by electronic cell sizing on a Coulter Counter™ […] (Model ZM), with channelizer (C256), using at least 50,000 cells per data point and an orifice diameter of 140 μm. Aliquots of suspended cells were diluted into Hepes MEM containing the tonicity and/or agents to be evaluated. Mean cell volumes of each suspension aliquot were followed over time, starting at 1 minute after addition of cells to the assay media. Cell suspensions were maintained at 37° C. throughout the assay period. Absolute volumes (picoliters/cell) were calculated from distribution curves of cell diameter, using a standard curve generated by polystyrene latex beads of known diameter.
In order to determine whether the Na—K—Cl cotransporter of TM cells may play a role in restoration of intracellular volume following hypertonicity-induced cell shrinkage, we evaluated the effect of hypertonicity on TM cell volume and Na^+—K^+—2Cl^− cotransport activity. […] The intracellular volume of the cells then increased over a slower time course, with volume recovering to approximately 84% by 33 minutes as shown in FIG. 3A.

TM cell monolayers = assay: Flux of 14C-sucrose across confluent TM cell monolayers on filters; type: cell-based; settings: 15 minute assay period
Procedure: To investigate the possibility that alteration of TM intracellular volume results in modulation of trabecular meshwork barrier permeability, we evaluated the flux of ^14C-sucrose across confluent TM cell monolayers grown on permeable filters. Cells were grown to confluence on collagen-coated dual level tissue culture filter inserts placed in covered multiwell cluster plates, as shown schematically in […], wherein lower chamber 2 is formed by suspension of membrane 4 with cells attached into holder 6, which is covered by cover 8. Upper chamber 10 is formed by the space within the holder above the membrane. Growth media (EMEM) volumes of 0.5 and 1.5 ml were used for upper and lower chambers, respectively, as previously described (Kajimura, et al., FASEB J, 8:A1045, 1994) for evaluation of endothelial cell monolayers and for evaluation of water permeability of TM cell monolayers (Perkins, et al., Invest. Ophthalmol. Vis. Sci., 29:1836-1846, 1988). One insert was placed in each of 12 wells in a cluster plate. Permeability was assessed as the flux of ^14C-sucrose across the TM cell monolayers. […] Sucrose content of the samples was determined by […] methods. The amount of solute was calculated from the radioactivity present in the sample and the specific activity (cpm/μmol) of the ^14C-sucrose.

Na—K—Cl cotransport = biological target: T1, Na—K—Cl cotransport (Bos taurus, UniProt F1MS08); assay: K influx (86Rb) in bovine TM cell monolayers; type: cell-based
T1 sequence (F1MS08 1-1204): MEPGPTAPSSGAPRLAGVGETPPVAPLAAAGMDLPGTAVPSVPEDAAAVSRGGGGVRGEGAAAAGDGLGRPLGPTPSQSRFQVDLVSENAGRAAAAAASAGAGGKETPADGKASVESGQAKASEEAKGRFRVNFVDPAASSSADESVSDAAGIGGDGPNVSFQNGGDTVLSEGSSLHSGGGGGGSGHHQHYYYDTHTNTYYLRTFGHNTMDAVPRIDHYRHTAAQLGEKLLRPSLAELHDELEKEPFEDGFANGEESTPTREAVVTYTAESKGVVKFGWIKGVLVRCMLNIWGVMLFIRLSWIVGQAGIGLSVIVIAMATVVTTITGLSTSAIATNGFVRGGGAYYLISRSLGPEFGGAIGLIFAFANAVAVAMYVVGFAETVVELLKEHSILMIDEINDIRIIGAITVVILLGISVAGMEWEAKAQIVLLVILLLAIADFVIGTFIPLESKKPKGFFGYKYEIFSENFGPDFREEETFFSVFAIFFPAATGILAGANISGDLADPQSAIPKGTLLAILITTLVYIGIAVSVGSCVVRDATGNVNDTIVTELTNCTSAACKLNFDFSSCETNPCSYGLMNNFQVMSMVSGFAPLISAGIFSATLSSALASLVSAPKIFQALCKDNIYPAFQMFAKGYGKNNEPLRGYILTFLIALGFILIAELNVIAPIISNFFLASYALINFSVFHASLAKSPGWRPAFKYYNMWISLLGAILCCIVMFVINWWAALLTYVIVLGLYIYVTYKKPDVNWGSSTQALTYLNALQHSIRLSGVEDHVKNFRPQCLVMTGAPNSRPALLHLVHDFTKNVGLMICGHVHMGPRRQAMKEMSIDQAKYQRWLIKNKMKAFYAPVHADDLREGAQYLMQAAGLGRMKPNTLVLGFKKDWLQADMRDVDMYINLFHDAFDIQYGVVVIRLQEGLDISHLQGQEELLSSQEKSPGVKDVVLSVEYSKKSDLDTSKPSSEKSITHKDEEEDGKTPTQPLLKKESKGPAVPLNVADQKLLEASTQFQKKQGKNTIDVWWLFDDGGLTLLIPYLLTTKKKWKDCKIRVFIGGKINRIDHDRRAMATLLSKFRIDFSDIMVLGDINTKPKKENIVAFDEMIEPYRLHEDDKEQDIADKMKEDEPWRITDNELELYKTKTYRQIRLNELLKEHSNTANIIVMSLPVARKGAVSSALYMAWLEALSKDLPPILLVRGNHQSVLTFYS
Procedure: Details of this method have been published previously (O'Donnell, M. E., supra, 1989). Briefly, bovine or human TM cell monolayers on 24 well plates were equilibrated for 10 minutes at 37° C. in a Hepes-buffered minimal essential medium (MEM) containing (in mM): 144 Na, 147 Cl, 5.8 K, 1.2 Ca, 4.2 HCO3, 0.4 H2PO4, […], 0.4 SO4, 5.6 glucose and 20 Hepes. […] The assay medium also contained ^86Rb (1 μCi/ml) (Dupont New England Nuclear, Boston, Mass.). The assay was terminated by rinsing the wells with ice-cold isotonic MgCl2, then extracting the contents with 0.2% sodium dodecyl sulfate (SDS), and determining the amount of radioactive contents by liquid scintillation. Osmolarities of all preincubation and assay media were verified by osmometry (Model 3W2, Advanced Instruments, Norwood, Mass.).
The effects of hormones, neurotransmitters and second messengers on Bumetanide-sensitive K influx of bovine trabecular meshwork cells were assessed using the procedures of Example 1. […] The control is the Hepes-buffered medium containing Na, K, Cl, CA and other ions as described in Example 1B. […] The data represent the mean values±SEM of quadruplicate determinations from two experiments.

[1] = tested on: Na+—K+—2Cl− cotransporter
Procedure: Thus, studies were conducted to determine the magnitude of net K uptake mediated by the TM cell Na^+—K^+—2Cl^− cotransporter. For determination of the net potassium uptake, the potassium contents of TM cells were evaluated by atomic absorption spectrophotometry, as described previously by O'Donnell, M. E. (supra, 1993). Briefly, cells were preincubated in 10 μM bumetanide for 5 minutes, and assayed as described above, with the exception that no ^86Rb was present during the assay. Cell ionic contents were extracted with 5% trichloroacetic acid following removal of extracellular potassium by washing the monolayers with ice-cold 0.1 M MgCl2.

SMILES: CCCCNc1cc(C(=O)O)cc(S(N)(=O)=O)c1Oc1ccccc1 [bumetanide]
- intracellular volume (bovine TM cells; 30 minute exposure, bumetanide 10 μM, ethacrynic acid 1 mM, versus Hepes MEM control): significant reduction
- volume recovery after hypertonicity-induced cell shrinkage (bovine TM cells; hypertonic (400 mOsm) medium containing bumetanide): greatly attenuated
- monolayer permeability to sucrose (TM cell monolayers): increased
- K influx (Na—K—Cl cotransport; 10 μM bumetanide, total K uptake without drug 49±1.47): 22.09±1.14 μmol K/gm protein/min
- BUMETANIDE-SENSITIVE K INFLUX (Na—K—Cl cotransport; with Na/K pump inhibition (ouabain)): 20.1 μmol K/gm protein/min
- BUMETANIDE-SENSITIVE K INFLUX (Na—K—Cl cotransport; without Na/K pump inhibition): 26.9 μmol K/gm protein/min
- bumetanide-sensitive net K uptake ([1]; Cl omitted from the incubation medium, n=8): −2.62±2.82 μmol K/gm protein/min
- bumetanide-sensitive net K uptake ([1]; Na omitted from the incubation medium, n=8): 1.71±2.49 μmol K/gm protein/min
- bumetanide-sensitive net K uptake ([1]; steady state, 10 μM bumetanide): 7.78=1.98 μmol K/gm protein/min

From patent US20020016346A1, “Method for enhancing outflow of aqueous humor in treatment of glaucoma” (The Regents University of California, a California …, priority 1994, published 2002)
